Measured values from BigSolDB 2.1.

Cc1cnc(NC(=O)C2=C(O)c3ccccc3S(=O)(=O)N2C)s1
solubility (mole fraction)
Settings | 293.15 K | 298.15 K | 303.15 K | 308.15 K | 313.15 K
in ethanol | 4.47e-05 | 5.67e-05 | 7.52e-05 | 9.37e-05 | 0.000123
in ethyl acetate | 0.000389 | 0.000453 | 0.00053 | 0.000607 | 0.000707
